pEC50: −log10 of the molar value. Where “and” joins values, the source holds several entries; their conditions need not be identical. Equal entries are not always repeated. Numbered stars: 1 amine (or outer) side, 2 acyl side, 3 side chain; on linkers, the order of the positions; unused ones are H or OH. Bridge positions count the residues as written; N and C are the ends. Square brackets hold non-standard residues; d marks the D form. Peptide text beside a SMILES is read from it. I, II: the chains in the order shown. Actinocin(1to9) = Cc1c2oc3c(C)ccc(C(=O)[*:2])c3nc-2c(C(=O)[*:1])c(N)c1=O; NMeV = CN[C@H](C(=O)O)C(C)C; Sar = CNCC(=O)O
Columns and labels:
Plasmodium falciparum [1] = assay: NOVARTIS: Inhibition of Plasmodium falciparum 3D7 (drug-susceptible) proliferation in erythrocyte-based infection assay; assay type: functional, organism-based
Plasmodium falciparum [2] = assay: NOVARTIS: Inhibition of Plasmodium falciparum W2 (drug-resistant) proliferation in erythrocyte-based infection assay; assay type: functional, organism-based; conditions: read-out: EC50
Huh-7 = assay: NOVARTIS: Cytotoxicity against human hepatocellular carcinoma cell line (Huh7); assay type: toxicity, cell-based; conditions: huh-7, read-out: CC50

Structure (SMILES)	pEC50 (Plasmodium falciparum [1]; Plasmodium falciparum, 3D7)	pEC50 (Plasmodium falciparum [2]; Plasmodium falciparum, W2)	CC50 (Huh-7)	pEC50 (Plasmodium falciparum [1])	pEC50 (Plasmodium falciparum [2])
CC[n+]1c(C=CC=C2N(C)c3ccccc3C2(C)C)sc2ccccc21.[O-][Cl+3]([O-])([O-])[O-]	6.83	6.75	1630 nM		
Cc1[nH]c2ccccc2c1/C=C/c1cc[n+](C)cc1	6.59	6.94	> 10000 nM		
CC[n+]1ccccc1C=Cc1ccc(N(C)C)cc1	6.44		15200 nM and > 10000 nM and > 100000 nM	6.58 and 6.46	5.90 and 6.57 and 6.42
CCN1C(=Cc2ccc3ccccc3[n+]2CC)C=Cc2sc3ccccc3c21			2970 nM and 27800 nM	6.73 and 7.29	7.36 and 6.83
CCN1C=C/C(=C\c2cccc[n+]2C)c2ccccc21	6.08		> 100000 nM	5.99	6.17 and 5.71
CN1/C(=C/c2cccc[n+]2C)Sc2ccccc21	6.86	6.65	> 100000 nM	6.64	6.53
CCN1/C(=C/c2ccc3cc(C)ccc3[n+]2C)Sc2ccc3ccsc3c21		< 5.90	> 10000 nM and 55900 nM	6.02 and 6.43	6.07
O=C1NC(=Nc2ccccc2)S/C1=C/c1ccc(F)c(Br)c1			> 100000 nM	< 4.90	5.79 and < 7.03
O=C1NN(c2ccccc2)C(=O)/C1=C1/C(=O)N(Cc2cccc3ccccc23)c2ccccc21			> 100000 nM	< 6.27 and 5.30	< 5.90 and 5.49
CCN1/C(=C/c2ccc3ccccc3[n+]2CC)Sc2cc(NC(C)=O)ccc21 [listing 1 of 2 here]			> 100000 nM	6.95	7.15
CN(C)c1ccc(C=CC=Cc2cccc[n+]2C)cc1	6.97	> 8.07	> 10000 nM		
CC[n+]1c(/C=C/N(C)c2ccccc2)n(-c2ccccc2)c2ccc(-c3nc4ccccc4s3)cc21			> 10000 nM and 26900 nM	< 6.03 and 6.34	< 5.76 and 6.50
CCN1/C(=C/c2ccc3cc(OC)ccc3[n+]2CC)Sc2ccc(NC(C)=O)cc21		7.08	> 52000 nM	7.51 and 6.95	6.93
CC[n+]1c(/C=C2\Sc3ccc(OC)cc3N2C)ccc2cc(C)ccc21			> 10000 nM and 21800 nM		6.48 and 7.28
CC[n+]1c(/C=C2\Sc3oc4ccccc4c3N2C)ccc2cc(C)ccc21		7.07	3590 nM and 13600 nM	7.06 and 6.60	7.05
Cc1ccc(-n2c(C)cc(/C=C3\SC(=Nc4ccc(Cl)cc4)NC3=O)c2C)cc1		6.21	> 100000 nM	6.29 and 6.71	6.20

Structure (SMILES)	pEC50 (Plasmodium falciparum [1]; Plasmodium falciparum, 3D7)	pEC50 (Plasmodium falciparum [2]; Plasmodium falciparum, W2)	CC50 (Huh-7)	pEC50 (Plasmodium falciparum [1])	pEC50 (Plasmodium falciparum [2])
CCN1/C(=C/c2[se]c3ccccc3[n+]2CC)C=Cc2cc(OC)ccc21			12700 nM	5.80	6.01
CCn1c(C=CN(C(C)=O)c2ccccc2)[n+](CC)c2cc(Cl)ccc21			> 100000 nM	5.59	5.80
CC[n+]1c(C=CC=C2N(C)c3ccccc3C2(C)C)sc2ccccc21	6.20	6.28	> 10000 nM		
Cc1ccc(N=C2S/C(=C\c3c(Cl)cccc3Cl)C(=O)N2c2ccc(C)c(C)c2)cc1C			> 100000 nM		5.87 and 5.32
CCN1/C(=C\C=C\c2n(CC)c3ccc(C#N)cc3[n+]2CC)Oc2ccc(-c3ccccc3)cc21			> 100000 nM	5.41	5.22
CCN1/C(=C/c2ccc3ccccc3[n+]2CC)Sc2cc(NC(C)=O)ccc21 [listing 2 of 2 here]			> 10000 nM	6.03	6.15
CCCCN1C(=Cc2cccc[n+]2C)Sc2cc(NC(C)=O)ccc21			> 100000 nM	5.68	5.44
COc1ccc(/C=C2/SC(=Nc3ccccc3)NC2=O)c(OC)c1	6.27	6.37	> 100000 nM	6.18	6.60
C/C(C=C1Sc2ccc3ccoc3c2N1CCO)=C\c1sc2ccc3occc3c2[n+]1CCO			> 100000 nM	5.16 and 5.81	
Cc1cc(/C=C2\SC(=Nc3ccccc3)NC2=O)c(C)n1-c1ccccc1			> 99700 nM		7.89 and 7.06
CCN1/C(=C/c2sc3ccccc3[n+]2CC)Sc2ccccc21			32600 nM	6.25	6.61
O=C(Nc1ccc(-c2nc3cc(NC(=O)c4cccc([N+](=O)[O-])c4)ccc3[nH]2)cc1)c1cccc([N+](=O)[O-])c1	6.31		1670 nM and 667 nM	6.49	6.20 and 6.61
Cc1c2oc3c(C)ccc(C(=O)N[C@@H]4C(=O)N[C@H](C(C)C)C(=O)N5CCC[C@H]5C(=O)N(C)CC(=O)N(C)[C@@H](C(C)C)C(=O)O[C@@H]4C)c3nc-2c(C(=O)N[C@@H]2C(=O)N[C@H](C(C)C)C(=O)N3CCC[C@H]3C(=O)N(C)CC(=O)N(C)[C@@H](C(C)C)C(=O)O[C@@H]2C)c(N)c1=O [DACTINOMYCIN] (I: T[dV]P[Sar][NMeV] / II: T[dV]P[Sar][NMeV]; ester I:1-I:C, II:1-II:C; linker I:N-II:N via Actinocin(1to9))		6.67	4180 nM and > 10000 nM	6.49 and 6.09	6.40
CC[n+]1c(C=CN(C)C)sc2ccccc21			> 10000 nM	6.35	6.34
CCN(CC)c1ccc(C=Cc2cccc[n+]2CC)cc1			> 10000 nM	8.61	6.54
C[n+]1ccc(C=Cc2ccc(O)cc2)cc1			> 10000 nM	6.52	6.76

— ChEMBL document CHEMBL1156829 (Proc Natl Acad Sci U S A, 2008)
